# From patent US7470707B2, “Crystalline monohydrate clopidogrel naphthalenedisulfonate and process of preparation” (Hanmi Pharm. Co., Ltd, priority 2004, dated 2008)
# Structures can show the parent of a compound that is named as a salt. Where two headings read alike, the source gives them in different places.
# How the values were obtained:
# [1] = 60±2° C., 75±5% relative humidity
# Method: (§1) The assay of the acid addition salt of clopidogrel was measured using HPLC condition A, the amount of hydrolyzed impurities of the acid addition salt of clopidogrel was measured using HPLC condition B, the optical purity of the acid addition salt of clopidogrel (i.e., the amount of the levorotatory isomers) was measured using the HPLC condition C, and the water content of the acid addition salt of clopidogrel was measured with a Karl-Fisher titrator.
# [2] = Method: Effects on the bleeding time of the conventional clopidogrel hydrogen sulfate obtained in Comparative Example 1 and the inventive clopidogrel 2-naphthalenesulfonate and clopidogrel 1,5-naphthalenedisulfonate monohydrate obtained in Examples 1 and 2, respectively, were tested using rat in accordance with the standard method (see Dejana E & Villa S, Thromb. Haemostas. 48: 108-111, 1982). The bleeding time is an index representing the extent of thrombus formed by platelet aggregation and tests were performed using male and female rats.
# Forty 11 to 12-weeks old male and female Sprague-Dawley rats (average weight: 270±25 g) were divided into four groups each consisting of five male rats and five female rats, and the male rats of the first group were each orally administered with 5.0 mg/kg of clopidogrel hydrogen sulfate (3.83 mg/kg as clopidogrel) and the female rats of the first group were each orally administered with 2.5 mg/kg (1.92 mg/kg as clopidogrel). For the second group, the male and female rats were orally each administered with 6.30 mg/kg and 3.15 mg/kg of clopidogrel 2-naphthalenesulfonate, respectively, and for the third group, the male and female rats were each orally administered with 5.65 mg/kg and 2.83 mg/kg of clopidogrel 1,5-naphthalenedisulfonate monohydrate, respectively. The drug was orally administered in the form of 1% DMSO solution in an amount in volume of 10 ml/kg body weight. As a comparison, only 1% DMSO solution was administered to the last group of rats.
# After fixing an unanesthetized rat with an experimental holder, the tail of the rat was pierced at a position of 1.5 cm from the end of tail using a need of 26 G×½, 0.45×13 mm at a depth of 1 mm. The time of bleeding to cease was measured with absorbing the bleeding blood on a filter paper every 10 second.
# [3] = 60±2° C., 75±5% RH; for Relative amount compared to the initial amount: HPLC condition A; for Amount of hydrolyzed impurities (formula (III)) of an acid addition salt of clopidogrel: HPLC condition B; for Amount of levorotatory isomers (formula (IV)) of an acid addition salt of clopidogrel: HPLC condition C
# Method: Condition A: For the measurement of an assay of an acid addition salt of clopidogrel
# • Column: Kromasil C18, 5 μm (250 mm×4.6 mm) • Detector: 220 nm • Flow rate: 1.5 ml/minute • Mobile phase: Na2HPO4—NaH2PO4 buffer solution: THF: CH3CN=5:2:3 (v/v) Condition B: For the measurement of an amount of hydrolyzed impurities of an acid addition salt of clopidogrel • Column: Capcellpak C18 MG, 5 μm (250 mm×4.6 mm) • Detector: 210 nm • Flow rate: 1.0 ml/min. • Mobile phase: KH2PO4 buffer solution/CH3CN (70/30): KH2PO4 buffer solution/CH3CN (30/70)=0:100 100:0 (v/v, gradient elution) Condition C: For the measurement of an optical purity of an acid addition salt of clopidogrel • Column: Chiralpak AD, 5 μm (250 mm×4.6 mm) • Detector: 210 nm • Flow rate: 1.0 ml/min. • Mobile phase: n-hexane: isopropanol=90:10 (v/v)
# as §1
# [4] = Female Sprague-Dawley rats, oral dose corresponding to 1.92 mg/kg of clopidogrel
# [5] = Male Sprague-Dawley rats, oral dose corresponding to 3.83 mg/kg of clopidogrel
compound,measurement,setting,value
"COC(=O)[C@H](c1ccccc1Cl)N1CCc2sccc2C1 [1,5-Naphthalenedisulfonate monohydrate, Clopidogrel 1,5-naphthalenedisulfonate Monohydrate]",Water content,"[1]; 0 day, Monohydrate",1.8%
same,Water content,"[1]; 7 days, Monohydrate",1.8%
same,Water content,"[1]; 14 days, Monohydrate",1.9%
same,Water content,"[1]; 21 days, Monohydrate",1.9%
same,Water content,"[1]; 28 days, Monohydrate",1.8%
same,Water content,"[1]; 35 days, Monohydrate",1.9%
same,Bleeding time,"[2]; Female Sprague-Dawley rats, oral dose corresponding to 1.92 mg/kg of clopidogrel, Monohydrate",152.5 ± 3.5 s
same,Bleeding time,"[2]; Male Sprague-Dawley rats, oral dose corresponding to 3.83 mg/kg of clopidogrel, Monohydrate",163 ± 5.8 s
same,Relative amount compared to the initial amount,[3]; 0 day,100%
same,Amount of hydrolyzed impurities (formula (III)) of an acid addition salt of clopidogrel,[3]; 0 day,0.0%
same,Amount of levorotatory isomers (formula (IV)) of an acid addition salt of clopidogrel,"[3]; 0 day, Monohydrate",0.10%
same,Relative amount compared to the initial amount,"[3]; 7 days, Monohydrate",100%
same,Amount of levorotatory isomers (formula (IV)) of an acid addition salt of clopidogrel,"[3]; 7 days, Monohydrate",0.10%
same,Relative amount compared to the initial amount,"[3]; 14 days, Monohydrate",100%
same,Amount of hydrolyzed impurities (formula (III)) of an acid addition salt of clopidogrel,"[3]; 14 days, Monohydrate",0.02%
same,Amount of levorotatory isomers (formula (IV)) of an acid addition salt of clopidogrel,"[3]; 14 days, Monohydrate",0.10%
same,Relative amount compared to the initial amount,"[3]; 21 days, Monohydrate",100%
same,Amount of levorotatory isomers (formula (IV)) of an acid addition salt of clopidogrel,"[3]; 21 days, Monohydrate",0.09%
same,Relative amount compared to the initial amount,"[3]; 28 days, Monohydrate",99.9%
same,Amount of hydrolyzed impurities (formula (III)) of an acid addition salt of clopidogrel,"[3]; 28 days, Monohydrate",0.04%
same,Amount of levorotatory isomers (formula (IV)) of an acid addition salt of clopidogrel,"[3]; 28 days, Monohydrate",0.11%
same,Relative amount compared to the initial amount,"[3]; 35 days, Monohydrate",99.9%
same,Amount of hydrolyzed impurities (formula (III)) of an acid addition salt of clopidogrel,"[3]; 35 days, Monohydrate",0.05%
same,Amount of levorotatory isomers (formula (IV)) of an acid addition salt of clopidogrel,"[3]; 35 days, Monohydrate",0.10%
"COC(=O)[C@H](c1ccccc1Cl)N1CCc2sccc2C1 [Hydrogen sulfate, Clopidogrel Hydrogen Sulfate, reference compound]",Water content,[1]; 0 day,0.1%
same,Water content,[1]; 7 days,0.1%
same,Water content,[1]; 14 days,0.1%
same,Water content,[1]; 21 days,0.4%
same,Water content,[1]; 28 days,2.0%
same,Water content,[1]; 35 days,4.8%
same,Bleeding time,[2]; [4],127.5 ± 10.6 s
same,Bleeding time,[2]; [5],135 ± 8.7 s
same,Relative amount compared to the initial amount,[3]; 0 day,100%
same,Amount of hydrolyzed impurities (formula (III)) of an acid addition salt of clopidogrel,[3]; 0 day,0.0%
same,Amount of levorotatory isomers (formula (IV)) of an acid addition salt of clopidogrel,[3]; 0 day,0.35%
same,Relative amount compared to the initial amount,[3]; 7 days,99.6%
same,Amount of levorotatory isomers (formula (IV)) of an acid addition salt of clopidogrel,[3]; 7 days,0.35%
same,Relative amount compared to the initial amount,[3]; 14 days,98.7%
same,Amount of hydrolyzed impurities (formula (III)) of an acid addition salt of clopidogrel,[3]; 14 days,0.63%
same,Amount of levorotatory isomers (formula (IV)) of an acid addition salt of clopidogrel,[3]; 14 days,0.40%
same,Relative amount compared to the initial amount,[3]; 21 days,97.7%
same,Amount of levorotatory isomers (formula (IV)) of an acid addition salt of clopidogrel,[3]; 21 days,0.49%
same,Relative amount compared to the initial amount,[3]; 28 days,94.4%
same,Amount of hydrolyzed impurities (formula (III)) of an acid addition salt of clopidogrel,[3]; 28 days,2.0%
same,Amount of levorotatory isomers (formula (IV)) of an acid addition salt of clopidogrel,[3]; 28 days,0.67%
same,Relative amount compared to the initial amount,[3]; 35 days,87.0%
same,Amount of hydrolyzed impurities (formula (III)) of an acid addition salt of clopidogrel,[3]; 35 days,4.8%
same,Amount of levorotatory isomers (formula (IV)) of an acid addition salt of clopidogrel,[3]; 35 days,1.08%
"COC(=O)[C@H](c1ccccc1Cl)N1CCc2sccc2C1 [2-Naphthalenesulfonate, Clopidogrel 2-naphthalenesulfonate]",Water content,[1]; 0 day,0.1%
same,Water content,[1]; 7 days,0.1%
same,Water content,[1]; 14 days,0.1%
same,Water content,[1]; 21 days,0.1%
same,Water content,[1]; 28 days,0.1%
same,Water content,[1]; 35 days,0.1%
same,Bleeding time,[2]; [4],157 ± 10.6 s
same,Bleeding time,[2]; [5],190 ± 5.0 s
same,Relative amount compared to the initial amount,[3]; 0 day,100%
same,Amount of hydrolyzed impurities (formula (III)) of an acid addition salt of clopidogrel,[3]; 0 day,0.0%
same,Amount of levorotatory isomers (formula (IV)) of an acid addition salt of clopidogrel,[3]; 0 day,0.10%
same,Relative amount compared to the initial amount,[3]; 7 days,99.1%
same,Amount of levorotatory isomers (formula (IV)) of an acid addition salt of clopidogrel,[3]; 7 days,0.10%
same,Relative amount compared to the initial amount,[3]; 14 days,99.3%
same,Amount of hydrolyzed impurities (formula (III)) of an acid addition salt of clopidogrel,[3]; 14 days,0.12%
same,Amount of levorotatory isomers (formula (IV)) of an acid addition salt of clopidogrel,[3]; 14 days,0.10%
same,Relative amount compared to the initial amount,[3]; 21 days,99.1%
same,Amount of levorotatory isomers (formula (IV)) of an acid addition salt of clopidogrel,[3]; 21 days,0.10%
same,Relative amount compared to the initial amount,[3]; 28 days,99.0%
same,Amount of hydrolyzed impurities (formula (III)) of an acid addition salt of clopidogrel,[3]; 28 days,0.16%
same,Amount of levorotatory isomers (formula (IV)) of an acid addition salt of clopidogrel,[3]; 28 days,0.11%
same,Relative amount compared to the initial amount,[3]; 35 days,99.2%
same,Amount of hydrolyzed impurities (formula (III)) of an acid addition salt of clopidogrel,[3]; 35 days,0.18%
same,Amount of levorotatory isomers (formula (IV)) of an acid addition salt of clopidogrel,[3]; 35 days,0.13%
